According to patent US8633242B2, “Benzylidene indanones and processes for preparation and use thereof” (Council of Scientific and Industrial Research, priority 2011, dated 2014):

Experiments:
[1] = tested on: PC-3 (prostate); experiment: Sulphorhodamine B cytotoxicity assay, PC-3; format: cell-based, human; parameters: key to Human cancer cell lines IC50, PC-3 (prostate): Inactive: inactive, if IC50 > 100 μM; conditions: for Human cancer cell lines IC50, PC-3 (prostate) / IC50: SRB assay, 48 hours incubation; for IC50: Homo sapiens, read-out: Human cancer cell lines IC50, PC-3 (prostate)
Procedure: (§1) The benzylidene analogues were evaluated by Sulphorhodamine B Assay as per reported method [Skehan et al., J. Natl. Cancer Inst. 1990, 82, 1107]. The human cancer cell lines procured from National Cancer institute, Frederick, U.S.A. were used in present study. Cells were grown in tissue culture flasks in complete growth medium (RPMI-1640 medium with 2 mM glutamine, pH 7.4 supplemented with 10% fetal bovine serum, 100 μg/ml streptomycin and 100 units/ml penicillin) in a carbon dioxide incubator (37° C., 5% CO2, 90% RH). The cells at subconfluent stage were harvested from the flask by treatment with trypsin (0.05% in PBS (pH 7.4) containing 0.02% EDTA). Cells with viability of more than 98%, as determined by trypan blue exclusion, were used for determination of cytotoxicity. The cell suspension required concentration of cells was prepared in complete growth medium. Stock solution of 2×10^−2 M of compounds were prepared in DMSO and further dilution was carried out complete growth medium containing 50 μg/ml of gentamycin to obtained working test solution of required concentration. In vitro cytotoxicity against various human cancer cell lines was determined using 96-well cell culture plates. The 100 μl of cell suspension was added to each well of the 96-well cell culture plates. The cells were allowed to grow in CO2 incubator (37° C., 5% CO2, 90% RH) for 24 hours. The test materials in complete growth medium (100 μl) were added after 24 hours incubation to the wells containing cell suspension. The plates were further incubated for 48 hours (37° C. in an atmosphere of 5% CO2 and 90% relative humidity) in a carbon dioxide incubator after addition of test material and then the cell growth was stopped by gently layering trichloroacetic acid (50% TCA, 50 μl) on top of the medium in all the wells. The plates were incubated at 4° C. for one hour to fix the cells attached to the bottom of the wells. The liquid of all the wells was gently pipetted out and discarded. The plates were washed five times with distilled water to remove TCA, growth medium low molecular weight metabolites, serum proteins etc. and air-dried. Cell growth was measured by staining with sulforhodamine B dye. The adsorbed dye was dissolved in Tris-HCl Buffer (100 μl/well, 0.01M, pH 10.4) and plates were gently stirred for 10 minutes on a mechanical stirrer. The optical density (OD) was recorded on ELISA reader at 540 nm. 5-Fluorouracil, Paclitaxel (Taxol), Mitomycin-c and Adriamycin were used as positive controls.

[2] = tested on: HeLa (Cervix); experiment: Sulphorhodamine B cytotoxicity assay, HeLa; format: cell-based, human; parameters: key to Human cancer cell lines IC50, HeLa (Cervix): Inactive: inactive, if IC50 > 100 μM; conditions: SRB assay, 48 hours incubation; for IC50: Homo sapiens, HeLa, read-out: Human cancer cell lines IC50, HeLa (Cervix)
Procedure: as §1

[3] = tested on: MCF-7 (Breast cancer); experiment: Sulphorhodamine B cytotoxicity assay, MCF-7; format: cell-based, human; conditions: Homo sapiens, MCF7; SRB assay, 48 hours incubation; read-out: Human cancer cell lines IC50, MCF-7 (Breast cancer)
Procedure: as §1

[4] = tested on: HCT (Colon); experiment: Sulphorhodamine B cytotoxicity assay, HCT; format: cell-based, human; parameters: key to Human cancer cell lines IC50, HCT (Colon): Inactive: inactive, if IC50 > 100 μM; conditions: SRB assay, 48 hours incubation; for IC50: Homo sapiens, read-out: Human cancer cell lines IC50, HCT (Colon)
Procedure: as §1

[5] = tested on: tubulin protein; experiment: In-vitro tubulin polymerisation inhibition assay; format: biochemical; parameters: key to Tubulin polymerisation inhibition IC50: Inactive: inactive, if IC50 > 10 μM; conditions: for IC50: read-out: Tubulin polymerisation inhibition IC50; for IC50 / Tubulin polymerisation inhibition IC50: tubulin 3 mg/mL, 37° C., 340 nm, 1 h
Procedure: The tubulin polymerization experiment was performed using ‘assay kit’ (Cytoskeleton USA) following manufacturer's protocol based on the procedure described by of Shelanski et al. (1973) and Lee et al. (1977). Briefly, tubulin protein (3 mg/mL) in tubulin polymerization buffer (80 mM PIPES, pH 6.9, 2 mM MgCl2, 0.5 mM EGTA, 1 mM GTP and 15% glycerol) was placed in pre-warmed 96-well microtiter plates at 37° C. in the presence of test compounds with variable concentrations. All samples were mixed well and polymerization was monitored kinetically at 340 nm every min for 1 h using a Spectramax plate reader. Podophyllotoxin and etoposide were used as positive controls and DMSO as negative control. The IC50 value was determined from dose-dependent analysis and is defined as the concentration that inhibits the rate of polymerization by 50%.
Podophyllotoxin and etoposide, standard tubulin polymerisation inhibitors were used as positive controls.

[6] = tested on: THP-1 (Leukemia); experiment: Sulphorhodamine B cytotoxicity assay, THP-1; format: cell-based, human; conditions: Homo sapiens, THP-1; SRB assay, 48 hours incubation; read-out: Human cancer cell lines IC50, THP-1 (Leukemia)
Procedure: as §1

[7] = tested on: DU-145 (prostate); experiment: Sulphorhodamine B cytotoxicity assay, DU-145; format: cell-based, human; parameters: key to Human cancer cell lines IC50, DU-145 (prostate): Inactive: inactive, if IC50 > 100 μM; conditions: SRB assay, 48 hours incubation; for IC50: Homo sapiens, DU-145, read-out: Human cancer cell lines IC50, DU-145 (prostate)
Procedure: as §1

[8] = tested on: A549 (Lung); experiment: Sulphorhodamine B cytotoxicity assay, A549; format: cell-based, human; parameters: key to Human cancer cell lines IC50, A549 (Lung): Inactive: inactive, if IC50 > 100 μM; conditions: for IC50: read-out: Human cancer cell lines IC50, A549 (Lung)
Procedure: as §1

[9] = Homo sapiens, A549, SRB assay, 48 hours incubation

melting point [°C] | Tubulin polymerisation inhibition IC50 [5] | Structure (SMILES) | Human cancer cell lines IC50, PC-3 (prostate) [1] | Human cancer cell lines IC50, HeLa (Cervix) [2] | IC50 [3] [µM] | Human cancer cell lines IC50, HCT (Colon) [4] | inhibition of tubulin polymerisation, in words [5] | IC50 [5] [µM] | IC50 [6] [µM] | Human cancer cell lines IC50, DU-145 (prostate) [7] | Human cancer cell lines IC50, A549 (Lung) ([8]; SRB assay, 48 hours incubation) | IC50 [1] [µM] | IC50 [2] [µM] | IC50 [4] [µM] | IC50 [8, 9] [µM] | IC50 [7] [µM] | % Inhibition, PC-3 (Prostate) ([1]; positive control at 1 μM) [%] | inhibition at 1 µM ([8]; Homo sapiens, A549, positive control at 1 μM) [%]
139 to 141 | Inactive | COc1cc(C2C(=Cc3ccccc3)C(=O)c3cc(OC)c(OC)c(OC)c32)cc(OC)c1OC (stereo not drawn) [Compound 14, 2-benzylidene, 3-(3′,4′,5′-trimethoxyphenyl)-4,5,6-trimethoxy indan-1-one] | – | – | 42.5 | – | – | – | 32.7 | Inactive | – | 50.6 | 14.1 | 14.9 | 47.5 | – | – | –
191 to 192 | Inactive | COc1ccccc1/C=C1\C(=O)c2cc(OC)c(OC)c(OC)c2C1c1cc(OC)c(OC)c(OC)c1 (stereo not drawn) [Compound 19, 2-(2″-methoxybenzylidene), 3-(3′,4′,5′-trimethoxyphenyl)-4,5,6-trimethoxy indan-1-one] | Inactive | Inactive | – | Inactive | – | – | 29.3 | – | – | – | – | – | 62.6 | 21.5 | – | –
– | – | COc1cc([C@@H]2c3cc4c(cc3[C@@H](O[C@@H]3O[C@@H]5CO[C@@H](C)O[C@H]5[C@H](O)[C@H]3O)[C@H]3COC(=O)[C@H]23)OCO4)cc(OC)c1O [Etoposide, reference compound] | Inactive | – | 1.5 | – | – | […] | < 1 | Inactive | – | – | < 1 | 6.5 | 5.4 | – | – | –
– | – | CO[C@@]12[C@H](COC(N)=O)C3=C(C(=O)C(C)=C(N)C3=O)N1C[C@@H]1N[C@@H]12 [Mitomycin-c, reference compound] | – | – | – | – | – | – | – | – | – | – | – | – | – | – | 61 | –
– | – | CC(=O)O[C@H]1C(=O)[C@@]2(C)[C@H]([C@H](OC(=O)c3ccccc3)[C@]3(O)C[C@H](OC(=O)[C@H](O)[C@@H](NC(=O)c4ccccc4)c4ccccc4)C(C)=C1C3(C)C)[C@]1(OC(C)=O)CO[C@@H]1C[C@@H]2O [Paclitaxel, reference compound] | – | – | – | – | – | – | – | – | – | – | – | – | – | – | – | 69
– | – | COc1cc([C@@H]2c3cc4c(cc3[C@H](O)[C@H]3COC(=O)[C@H]23)OCO4)cc(OC)c1OC [Podophyllotoxin, reference compound] | – | – | < 1 | – | – | […] | < 1 | – | – | 91.5 | < 1 | < 1 | < 1 | 91.5 | – | –

Structure (SMILES) | melting point [°C] | Tubulin polymerisation inhibition IC50 [5] | Human cancer cell lines IC50, PC-3 (prostate) [1] | Human cancer cell lines IC50, HeLa (Cervix) [2] | IC50 [3] [µM] | Human cancer cell lines IC50, HCT (Colon) [4] | inhibition of tubulin polymerisation, in words [5] | IC50 [5] [µM] | IC50 [6] [µM] | Human cancer cell lines IC50, DU-145 (prostate) [7] | Human cancer cell lines IC50, A549 (Lung) ([8]; SRB assay, 48 hours incubation) | IC50 [1] [µM] | IC50 [2] [µM] | IC50 [4] [µM] | IC50 [8, 9] [µM] | IC50 [7] [µM] | % Inhibition, PC-3 (Prostate) ([1]; positive control at 1 μM) [%] | inhibition at 1 µM ([8]; Homo sapiens, A549, positive control at 1 μM) [%]
COc1ccc(/C=C2\C(=O)c3cc(OC)c(OC)c(OC)c3C2c2cc(OC)c(OC)c(OC)c2)cc1OC (stereo not drawn) [Compound 13, 2-(3″,4″-dimethoxybenzylidene), 3-(3′,4′,5′-trimethoxyphenyl)-4,5,6-trimethoxy indan-1-one] | 179 to 180 | – | Inactive | Inactive | 80.8 | Inactive | strong inhibition | 0.62 | 62 | Inactive | Inactive | – | – | – | – | – | – | –
